Experimental data from patent US20260200849A1, “CATIONIC LIPIDS AND PREPARATION METHOD THEREOF” (RiboX Therapeutics HK Limited, priority 2024, published 2026).

Key:
Balb/c mice = test: In vivo expression by IV, 0.05 mg/kg luciferase RNA-LNPs, IVIS luminescence; conditions: Formulation No. 001, RNA No. 331; female Balb/c mice, 0.05 mg*kg−1 intravenous, 24-hours post injection
Procedure: (§1) 7-8 week old, female Balb/c mice (N=3) were injected with 0.05 mg*kg−1 of RNA-LNPs encoding for firefly-luciferase by intravenous injection. At 24- and 72-hours post injection, animals were intraperitoneally injected with 15 mg/mi of Luciferin substrate and whole-body luminescence was determined by a bioluminescent in vivo imaging system (IVIS).
as §1, with “24-hours” for “24- and 72-hours”, “mg/ml” for “mg/mi”, “whole-body/liver/spleen” for “whole-body”

Hep G2 cells [1] = test: In vitro toxicity: Hep G2 cell viability by CellTiter-Glo; format: cell-based; conditions: Formulation No. 001, RNA No. 331, 1 μg/mL RNA-LNPs, 72 hours post transfection, cell only = 100%
Procedure: 2E5 Hep G2 cells were transfected with 1 μg/mL RNA-LNPs. At 72 hours post transfection, cell viability (2-well repeat) was determined with the CellTiter-Glo® reagent kit, according to the kit protocol, measured by a luminometer. Cell only as control (100%).
The cell viability was calculated according to the following formula: […]

MCP-1 = test: In vivo tolerability by IV: serum MCP-1 by Luminex; set-up: species or system C57BL/6J mice; conditions: Formulation No. 001, RNA No. 331, male C57BL/6J mice, 1.0 mg*kg/1 intravenous; for MCP-1 at 2 h: 2 hours post injection; for MCP-1 at 24 h: 24 hours post injection
Procedure: (§2) 6-8 week old, male C57BL/6J mice (N=3) were injected with 1.0 mg*kg/1 of RNA-LNPs encoding for firefly-luciferase by intravenous injection. At 2- and 24-hours post injection, about 40 μL blood was harvested and immediately added to the procoagulant containing tube. Stand for 30 min at room temperature and then centrifuged at 2500 g×10 min to obtain serum. About 15 μL serum samples were aliquoted for cytokine (MCP-1 and IL-6) detection by Luminex (ProcartaPlex Mouse 2-plex, Thermo). PBS group as negative control.
as §2, with “mg*kg−1” for “mg*kg/1”

Hep G2 cells [2] = test: In vitro expression: luciferase activity in Hep G2 cells transfected with RNA-LNPs; format: cell-based; conditions: Formulation No. 001, RNA No. 331 (firefly-luciferase), 100 ng/mL RNA-LNPs, 72 hours post transfection
Procedure: 2E5 Hep G2 cells were transfected with 100 ng/mL of RNA-LNPs encoding for firefly-luciferase. At 72 hours post transfection, the cells were washed and lysed. The luciferase expression (2-well repeat) was determined in the cell lysates with the luciferase assay reagent kit (Promega), according to the kit protocol, luciferase activity was measured by a luminometer.

[3] = LNP size and polydispersity index (PDI) by dynamic light scattering (Zetasizer); format: physicochemical; conditions: for Size (nm): Formulation No. 001 (Ionizable lipid:DSPC:cholesterol:DMG-PEG2000 = 50:10:38.5:1.5, N/P 6), RNA No. 331; for PDI: Formulation No. 001, RNA No. 331
Procedure: (§3) The LNP size and polydispersity index (PDI), determined by dynamic light scattering (DLS), and zeta potential were measured by a Zetasizer machine (Malvern). RNA concentration and encapsulation efficacy (EE %) were analyzed by the Quant-IT Ribogreen kit by calculating the percentage encapsulation at 100%—(RNA-LNPs/RNA-LNPs with Triton X-100).

[4] = RNA encapsulation efficacy (EE %) by Quant-IT Ribogreen kit; format: physicochemical; conditions: LNP, Formulation No. 001, RNA No. 331
Procedure: as §3

C57BL/6J mice = test: In vivo expression by IV, 1.0 mg/kg luciferase RNA-LNPs, whole-body and organ IVIS luminescence; conditions: Formulation No. 001, RNA No. 331; male C57BL/6J mice, 1.0 mg*kg−1 intravenous, 24-hours post injection
Procedure: (§4) 6-8 week old, male C57BL/6J mice (N=3) were injected with 1.0 mg*kg−1 of RNA-LNPs encoding for firefly-luciferase by intravenous injection. At 24-hours post injection, animals were intraperitoneally injected with 15 mg/ml of Luciferin substrate and whole-body/liver/spleen/kidney/small intestine/large intestine luminescence were determined by a bioluminescent in vivo imaging system (IVIS).
as §4, with “mg/nil” for “mg/ml”

IL-6 = test: In vivo tolerability by IV: serum IL-6 by Luminex; set-up: species or system C57BL/6J mice; conditions: Formulation No. 001, RNA No. 331, male C57BL/6J mice, 1.0 mg*kg/1 intravenous; for IL-6 at 2 h: 2 hours post injection; for IL-6 at 24 h: 24 hours post injection
Procedure: as §2
as §2, with “mg*kg−1” for “mg*kg/1”

Row | Size (nm) [3] [nm] | PDI [3] | EE (%) [4] [%] | SMILES | Liver (p/s) (Mean) (Balb/c mice) | Spleen (p/s) (Mean) (Balb/c mice) | Whole body (p/s) (Mean) (Balb/c mice) | In vitro cell viability (%) (Mean) (Hep G2 cells [1]) | MCP-1 at 2 h (MCP-1) [pg/mL] | MCP-1 at 24 h (MCP-1) [pg/mL] | In vitro Expression (Mean) (Hep G2 cells [2]) | Kidney (p/s) (C57BL/6J mice) | Large intestine (p/s) (C57BL/6J mice) | Liver (p/s) (C57BL/6J mice) | Small intestine (p/s) (C57BL/6J mice) | Spleen (p/s) (C57BL/6J mice) | Whole body (p/s) (C57BL/6J mice) | IL-6 at 2 h (IL-6) [pg/mL] | IL-6 at 24 h (IL-6) [pg/mL]
1 | 66.29 | 0.01 | 91.61 | CCCCCCCC/C=C\CCCCCCCC(=O)NC(COC(=O)NCCN1CCCCC1)C(=O)OCCCCCCCC(=O)OC(CCCCCCCC)CCCCCCCC (stereo not drawn) [Lipid 736] | 2.87E+08 | 1.39E+08 | 2.08E+09 | 73.49 | 3830 | 260 | 7.05E+05 | 5.22E+07 | 1.78E+08 | 2.87E+09 | 6.48E+08 | 3.38E+08 | 5.28E+09 | 442 | 3.03
2 | 64.18 | 0.02 | 92.11 | CCCCCCCC/C=C\CCCCCCCC(=O)NC(COC(=O)NCCN1CCCCC1)C(=O)OCCCCCC(=O)OCC(CCCCCCCC)CCCCCCCCCC (stereo not drawn) [Lipid 792] | 2.90E+08 | 1.01E+08 | 2.18E+09 | 81.74 | 1620 | 216 | 8.10E+05 | 3.20E+07 | 8.04E+07 | 2.74E+09 | 5.01E+08 | 3.20E+08 | 2.76E+09 | 25.9 | 6.86
3 | 63.50 | 0.04 | 91.60 | CCCCC/C=C\C/C=C\CCCCCCCCOC(=O)NC(COC(=O)NCCN1CCCCCC1)C(=O)OCCCCCCCC(=O)OC(CCCCCCCC)CCCCCCCC (stereo not drawn) [Lipid 858] | 3.71E+08 | 6.61E+07 | 8.74E+08 | 92.44 | 1360 | 111 | 2.88E+05 | 2.31E+07 | 1.58E+08 | 8.64E+08 | 6.45E+08 | 2.33E+08 | 1.92E+09 | 23 | 3.13
4 | 61.73 | 0.02 | 90.26 | CCCCC/C=C\C/C=C\CCCCCCCCOC(=O)NC(COC(=O)NCCN1CCCCCC1)C(=O)OCCCCCCCCOC(=O)C(CCCCCC)CCCCCCCC (stereo not drawn) [Lipid 881] | 2.25E+08 | 6.14E+07 | 1.18E+09 | 86.94 | 1190 | 253 | 4.02E+05 | 4.26E+07 | 1.30E+08 | 1.65E+09 | 8.57E+08 | 2.37E+08 | 2.92E+09 | 12.8 | 6.69
5 | 69.88 | 0.05 | 96.96 | CCCCCCCCC(CCCCCC)C(=O)OCCCCCCCCOC(=O)NC(COC(=O)NCCN(C)C)C(=O)OCCCCCCCCOC(=O)C(CCCCCC)CCCCCCCC (stereo not drawn) [Lipid 883] | 1.59E+08 | 2.09E+07 | 1.60E+09 | 93.23 | 1860 | 220 | 2.82E+05 | 6.37E+06 | 3.50E+07 | 3.22E+09 | 1.46E+08 | 2.19E+08 | 1.65E+09 | 16.4 | 5.01
6 | 61.64 | 0.02 | 95.41 | CCCCCCCCC(CCCCCC)C(=O)OCCCCCCCCOC(=O)NC(COC(=O)NCCN1CCCCCC1)C(=O)OCCCCCCCCOC(=O)C(CCCCCC)CCCCCCCC (stereo not drawn) [Lipid 889] | 1.70E+08 | 8.56E+07 | 1.04E+09 | 91.21 | 760 | 286 | 2.46E+05 | 3.47E+07 | 2.12E+08 | 5.79E+09 | 1.04E+09 | 2.95E+08 | 3.48E+09 | 7.62 | 4.69
7 | 83.82 | 0.02 | 98.30 | CCCCC/C=C\C/C=C\CCCCCCCCOC(=O)NC(COC(=O)NCCNC)C(=O)OCCCCCC(=O)OCC(CCCCCCCC)CCCCCCCCCC (stereo not drawn) [Lipid 907] | 1.46E+08 | 3.43E+07 | 1.18E+09 | 97.33 | 1020 | 81.5 | 2.56E+04 | 5.43E+06 | 3.94E+07 | 1.91E+08 | 3.03E+08 | 5.98E+07 | 8.99E+08 | 14 | 2.35
8 | 70.33 | 0.04 | 87.49 | CCCCCCCCCCCOC(=O)NC(COC(=O)NCCN1CCCCC1)C(=O)OCCCCCCCC(=O)OC(CCCCCCCC)CCCCCCCC (stereo not drawn) [Lipid 914] | 3.77E+08 | 5.60E+07 | 1.19E+09 | 79.98 | 452 | 148 | 1.56E+06 | 1.72E+07 | 4.60E+07 | 1.75E+09 | 4.42E+08 | 2.11E+08 | 2.46E+09 | 4.6 | 2.77
